Residues, ends and D or L forms follow the SMILES beside them. No end group written: not given here.

For series [1], the target named is T1, LH/hCG binding to rat ovarian membranes (Rattus norvegicus, UniProt P16235).
T1 construct: from tissue; host or cells: rat ovarian membranes
Conditions: among two series of overlapping peptides of hCG (ref. 15); cited from earlier work.

Series [2] relates to MCF-10F cells. Format: cell-based, human.
The test system of series [3] is LHCGR. Briefly: real time RT-PCR, LHCGR gene expression. Format: cell-based, human. A general note: In qPCR the cycle at which signal appears reflects the starting amount.
The test system of series [4] is FAK/AKT/FOXO3A pathway. Briefly: FAK, AKT and FOXO3A expression (unpublished data). Format: cell-based. Particulars: previous results.
The subject of series [5] is CXCR1. Briefly: real time RT-PCR, CXCR1 gene expression. It counts as cell-based, human.
Series [6] relates to GPR30. In words: real time RT-PCR, GPR30 gene expression. It counts as cell-based, human. Conditions: treated MCF-10F cells, data not shown.
The target in series [7] is T2, LH/hCG-R in MA-10 cells (Mus musculus, UniProt P30730).
T2 construct: endogenous in cells; host or cells: MA-10 mouse Leydig tumor cells
T2 sequence (P30730 27-700): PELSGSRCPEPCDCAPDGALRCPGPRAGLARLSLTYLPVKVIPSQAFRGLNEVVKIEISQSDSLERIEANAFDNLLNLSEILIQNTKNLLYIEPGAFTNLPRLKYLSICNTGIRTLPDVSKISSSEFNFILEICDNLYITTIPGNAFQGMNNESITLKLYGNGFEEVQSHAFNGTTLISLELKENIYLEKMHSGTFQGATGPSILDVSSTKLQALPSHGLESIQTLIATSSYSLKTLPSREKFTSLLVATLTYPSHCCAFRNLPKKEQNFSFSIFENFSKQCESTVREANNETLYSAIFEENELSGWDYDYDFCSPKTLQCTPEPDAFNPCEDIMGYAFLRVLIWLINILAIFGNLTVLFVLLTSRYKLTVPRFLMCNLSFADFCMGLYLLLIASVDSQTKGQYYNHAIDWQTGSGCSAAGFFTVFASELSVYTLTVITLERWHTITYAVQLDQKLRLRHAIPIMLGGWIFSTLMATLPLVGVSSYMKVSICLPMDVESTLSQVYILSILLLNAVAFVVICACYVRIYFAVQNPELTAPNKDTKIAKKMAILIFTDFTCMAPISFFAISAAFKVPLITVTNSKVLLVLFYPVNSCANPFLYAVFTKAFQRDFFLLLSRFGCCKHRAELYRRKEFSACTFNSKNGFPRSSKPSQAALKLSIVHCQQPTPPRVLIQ
Briefly: intracellular cAMP production (enzyme immunoassay). It counts as cell-based. Conditions: 2.5 μg r-hCG/ml or 20 μM PPFC-879-81-95.

In series [8] the test system is MCF-10F cells. In words: ductulogenesis and branching of MCF-10F cells in 3D collagen matrix. It counts as cell-based, human. Conditions: MCF-10F cells in collagen matrix, added to the culture medium. The source says:
(§1) The cells grow along hollow branches forming ductules lined by a monolayer of epithelial cells. […] For these studies, we designed oligopeptides of the hCG beta subunit and had them synthesized by AAPPTec, LLC, Louisville, Ky. We selected a 15 aa peptide with a sequence “N”-[…]-“C” (SEQ ID NO: 2) that encompasses aa 81-95 and was designated PPFC-879-81-95.

The subject of series [9] is E2-transformed MCF-10F cells. In words: solid mass formation and branching of E2-transformed MCF-10F cells in collagen. Conditions: compared with r-hCG. It counts as cell-based, human.
The target in series [10] is T3, LH/hCG-R in MCF10F cells (Homo sapiens, UniProt P22888).
T3 construct: For verifying the presence and functionality of the receptor in normal and transformed MCF10F cells; endogenous in cells; host or cells: MCF10F human breast epithelial cells
T3 sequence (P22888 27-699): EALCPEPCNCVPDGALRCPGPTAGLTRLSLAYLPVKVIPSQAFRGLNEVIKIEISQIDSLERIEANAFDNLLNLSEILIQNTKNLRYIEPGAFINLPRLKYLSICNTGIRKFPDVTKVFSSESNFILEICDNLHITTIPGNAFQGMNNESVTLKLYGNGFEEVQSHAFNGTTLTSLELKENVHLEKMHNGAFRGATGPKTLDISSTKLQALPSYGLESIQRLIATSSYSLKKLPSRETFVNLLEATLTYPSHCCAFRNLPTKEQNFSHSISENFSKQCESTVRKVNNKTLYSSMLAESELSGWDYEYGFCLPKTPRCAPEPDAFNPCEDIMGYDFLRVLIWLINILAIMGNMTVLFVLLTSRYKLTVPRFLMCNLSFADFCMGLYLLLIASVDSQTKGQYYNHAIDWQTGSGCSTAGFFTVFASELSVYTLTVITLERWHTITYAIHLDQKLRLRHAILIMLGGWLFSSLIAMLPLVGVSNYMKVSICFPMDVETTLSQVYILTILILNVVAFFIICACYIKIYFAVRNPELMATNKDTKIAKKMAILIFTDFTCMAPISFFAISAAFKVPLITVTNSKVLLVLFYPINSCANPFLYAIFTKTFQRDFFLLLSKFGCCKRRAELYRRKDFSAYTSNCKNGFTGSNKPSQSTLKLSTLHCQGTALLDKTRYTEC
Briefly: intracellular cAMP production (enzyme immunoassay). Format: cell-based. Conditions: 2.5 μg r-hCG/ml or 20 μM PPFC-879-81-95. Background: Cyclic AMP is a second messenger, typically raised through Gs and lowered through Gi signalling.

For series [11], the system named is human breast epithelial cells. In words: genomic analysis of r-hCG and peptide-treated cells. Format: cell-based. The source says:
The down-regulation of BMI1 supports the concept that the preventive effect of hCG results from the shifting of the stem cell 1 to stem cell 2 (Russo, J., et al., (2006) Front Biosci., 11:151-172). This is only one example of identification of the molecular determinants of hormone specificity which provide the means to target the CG/LH-R for activation thereby conferring the protective effects against breast cancer.

Series [12] has as its system MCF-10F cells. Briefly: invasiveness (cells traversing a matrigel membrane). It counts as cell-based, human.
From the text: (§2) FIG. 2: (A) Effect of 17b-estradiol (E2), r-hCG and PPFC-879-81-95 peptide on formation of primary, secondary, and tertiary ducts by MCF10F cells grown in a collagen matrix. DMSO served as control. Ordinate, percentage of structures. (B) Effect of r-hCG and hCG peptide on colony formation. Only DMSO-treated (control) E2-cells formed solid masses. (C) Effect of r-hCG and hCG peptide on the invasive index of MCF10F, E2-transformed, E2T4, MCF-7 and MDA-MB-435 cells. Ordinate, number of cells traversing a matrigel membrane.
as §1

The test system of series [13] is E2-transformed MCF-10F cells. The description is as above. It counts as cell-based, human.
From the text: as §2, §1

Series [14] concerns MCF-7. The description is as above. It counts as cell-based, human.
From the text: as §2, §1

Series [15] relates to tumor derived E2T4 cells. Described as above. It counts as cell-based, human.
From the text: as §2, §1

Series [16] relates to MDA-MB-435. The series is described as above. It counts as cell-based, human.
From the text: as §2, §1

For series [17], the system named is MCF-10F cells. Particulars: cells treated with E2; cited from earlier work.

T1 sequence (P16235 27-700): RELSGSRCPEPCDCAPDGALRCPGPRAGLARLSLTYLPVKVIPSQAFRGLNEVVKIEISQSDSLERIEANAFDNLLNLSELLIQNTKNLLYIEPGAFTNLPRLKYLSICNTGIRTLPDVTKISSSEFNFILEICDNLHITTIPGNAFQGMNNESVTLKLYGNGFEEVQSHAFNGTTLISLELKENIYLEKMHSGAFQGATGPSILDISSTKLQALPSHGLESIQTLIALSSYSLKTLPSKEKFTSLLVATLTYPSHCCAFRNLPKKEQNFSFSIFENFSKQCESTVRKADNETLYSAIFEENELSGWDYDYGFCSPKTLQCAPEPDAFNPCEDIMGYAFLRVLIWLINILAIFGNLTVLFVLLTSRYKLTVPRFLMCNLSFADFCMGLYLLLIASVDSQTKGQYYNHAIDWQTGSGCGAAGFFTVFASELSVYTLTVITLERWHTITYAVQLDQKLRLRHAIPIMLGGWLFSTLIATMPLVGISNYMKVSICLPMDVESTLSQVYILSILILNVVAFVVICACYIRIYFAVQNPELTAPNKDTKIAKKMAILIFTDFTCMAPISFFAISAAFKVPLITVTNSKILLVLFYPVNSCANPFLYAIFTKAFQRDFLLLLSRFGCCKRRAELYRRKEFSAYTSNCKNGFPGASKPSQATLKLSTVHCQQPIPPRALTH

`CC(C)C[C@H](NC(=O)[C@H](C)NC(=O)[C@@H](NC(=O)[C@@H]1CCCN1C(=O)[C@H](Cc1ccccc1)NC(=O)[C@@H](N)CO)C(C)C)C(=O)N[C@@H](CO)C(=O)N[C@@H](CS)C(=O)N[C@@H](CCCNC(=N)N)C(=O)N[C@@H](CS)C(=O)NCC(=O)N1CCC[C@H]1C(=O)N[C@@H](CS)C(=O)N[C@@H](CCCNC(=N)N)C(=O)N[C@@H](CCCNC(=N)N)C(N)=O` [peptide, SFP VAL SCR CGP CRR-NH2] (H-SFPVALSCRCGPCRR-NH2; N-terminus assumed): the “inhibition of 125I-labeled hCG binding” value in series [1] is on record as “most potent inhibitor of LH/hCG binding”. Further, the “cell proliferation inhibition, peptide versus hCG” value in [2] (days 10 and 12, p<0.02) is “more potent cell proliferation inhibitor than hCG”. For the same molecule, in series [2] (human, 20 μM), the “decrease in the number of viable cells” value is 36-72%. In series [3] (MCF-10F, from the first day of treatment on), the “hCG receptor (LHCGR) gene expression” value is given as “up-regulated”. Moreover, the “LHCGR gene expression, peptide versus hCG” value in [3] (last day of treatment (15th), p=0.06) is recorded as “tendency of the peptide to induce a higher levels gene expression than hCG”. Also, in [4], the “FAK and AKT” value was “decrease”; the FOXO3A expression result is “up-regulate”. Further, the CXCR1 expression result in [5] (MCF-10F, all along the treatment) is “down-regulated”. Also, the “CXCR1 down-regulation, peptide versus hCG” value in series [5] (last day of treatment (15), p<0.01) was “down-regulation of the receptor was more apparent in the peptide-treated cells than in hCG treated cells”. Further, the “GPR30 mRNA expression” value in [6] was “undetectable or very low values”.
Regarding “Ser-Tyr-Ala-Val-Ala-Leu-Ser-Cys-Gln-Cys-Ala-Leu-Cys-Arg-Arg (NH2) (SYAVALSCQCALCRR-NH2; cysteine pairing not given here) [PPFC-879-81-95, 15 aa peptide of the hCG beta subunit, aa 81-95]”, the “intracellular cAMP production” value in [7] and in series [10] was “time-dependent increase” each time. In addition, in series [8], the “number of secondary and tertiary ducts (branching pattern)” value was “increasing the number of secondary and tertiary ducts”. For the same molecule, in [9], the “formation of solid masses in collagen” value is “abrogated more efficiently than r-hCG”. Moreover, the “gene clusters activated or downregulated” value in [11] was “induced activation or downregulation of the same clusters of genes that were modified by either parity or r-hCG treatment”. Besides, the invasiveness entry in [12], in series [13], in series [14], in series [15] and in series [16] was “inhibited invasiveness” in each case.
In the case of `C[C@]12CC[C@@H]3c4ccc(O)cc4CC[C@H]3[C@@H]1CC[C@@H]2O` [E2, 17-β-estradiol], the “structures formed by MCF-10F cells in collagen after treatment” value in series [17] is “forming instead spherical structures with a multilayered epithelium that exhibits marked atypia”.

These data come from patent US8969304B2, “Compositions and methods for the prevention of cancer in high risk patients” (The Institute for Cancer Research, priority 2010, dated 2015).
